Legend:
human ESCs = assay: mRNA-Seq of H9 hESCs treated with coronatine; format: cell-based; conditions: H9 cells, 50 μM coronatine, 2 days
[1] = system: CCE A-CHK1 clone #2 cells; assay: Competition assay of A-CHK1 clone #2 cells against GFP-A CCE cells; format: cell-based, mouse; conditions: 50 μM IAA-treated A-CHK1 cells compared to the EtOH-treated controls
Method: FIGS. 6A-6E show CHK1 depletion under normal growth conditions in mESCs. FIG. 6A show images of cells assayed for alkaline phosphatase activity. CCE mESCs were infected with pRAIDRS GFP-A or A-CHK1 and selected in the presence of EtOH (“Con”) or auxin (“IAA”). After colonies emerged, cells were assayed for alkaline phosphatase activity. Left, low magnification scans. Right, bright-field microscope images. Scale bars, 100 μm. […] FIG. 6B are graphs showing populations doubling, following selection, of the indicated clones cultured in the presence of 0.01% EtOH (solid lines) or 50 μM IAA (dashed lines). Cells were counted and replated every 3-4 days and population doublings were calculated as Log2 (cell output/cell input). Experiment was conducted once for these clones. […] Cells were collected every 2-3 days and assayed for GFP and mCherry fluorescence by flow cytometry. The percentage of A-CHK1 cells was calculated for each time point and the values for the auxin-treated cells were normalized to those of EtOH-treated cells. An average growth rate decrease of 8% per day was calculated for auxin-treated A-CHK1 cells compared to the EtOH-treated controls. […] In FIG. 6E, the indicated clones were treated with 0.01% EtOH or 50 μM auxin (“IAA”) for 3 days and analyzed for the expression of self-renewal and differentiation markers by QRT-PCR. […]

[2] = system: aphidicolin-treated mESCs; assay: Mitotic entry after auxin in aphidicolin-treated A-CHK1 mESCs (mitotic index, flow cytometry); format: cell-based, mouse; conditions: A-CHK1 mESCs pretreated with aphidicolin for 1 day
Method: FIG. 5A is a western blot analysis depicting endogenous CHK1 (*) and AID^47-CHK1 (A-CHK1, **) in four selected clones and in parental non-infected mESCs. […] serves as a loading control. Experiment was repeated three times for clones #1 and #2, and a representative blot is presented. In FIG. 5B, A-CHK1 #2 mESCs were treated with ethanol (“Con”) or auxin (“IAA”) for 1 day. Cells were then treated with the indicated concentrations of aphidicolin (“Aph”). Equal concentrations of DMSO were applied to all conditions. The next day, cells were stained with crystal violet and plates were scanned. […] Left panel: mitotic index was calculated as the percentage of H3^pS10-positive cells with 4N DNA content, measured by flow cytometry. […] Tyr15 phosphorylation of CDK1 (“CDKlpY^15”) was detected using a phospho-specific antibody. β-Actin serves as a loading control. […]
Flow cytometry was performed on a BD LSRII machine. For GFP and mOrange fluorescence analysis, cells were trypsinized, neutralized with FBS-containing media, supplemented with […] DAPI and kept on ice. […] GFP and mOrange fluorescence intensities were detected using the fluorescein isothiocyanate (“FITC”) and DsRed channels, respectively. Background autofluorescence was measured using parental noninfected cells. […] To calculate % degradation, relative median fluorescence was subtracted from 1. […]

## CC[C@H]1C=C(C(=O)N[C@@]2(C(=O)O)C[C@@H]2CC)[C@H]2CCC(=O)[C@H]2C1 [coronatine, Coronatine]
Human ESCs; mRNA-Seq
  effect on global gene expression patterns: does not affect global gene expression patterns
Human ESCs; P<0.05 and fold change >2 in both replicates
  genes with differential expression between coronatine and control samples: only two genes

## O=C(O)Cc1c[nH]c2ccccc12 [auxin, indole-3-acetic acid]
[1]
  average growth rate decrease: 8 % per day
[2]
  time of synchronous mitotic entry post-auxin treatment: 45 to 90 min

— patent US11078496B2, “System for F-box hormone receptor regulated protein expression in mammalian cells” (ICAHN SCHOOL OF MEDICINE AT MOUNT SINAI, priority 2016, dated 2021)
